In patent publication US7517676B2, “Human cyclooxygenase-3 enzyme and uses thereof” (Janssen Pharmaceutica N.V., priority 2003, dated 2009):

Legend:
dog COX-3 = molecular target: T1, dog COX-3 (Canis lupus familiaris, UniProt Q8HZR1); conditions: cited from earlier work
T1 sequence (Q8HZR1 1-633 isoform Q8HZR1-2): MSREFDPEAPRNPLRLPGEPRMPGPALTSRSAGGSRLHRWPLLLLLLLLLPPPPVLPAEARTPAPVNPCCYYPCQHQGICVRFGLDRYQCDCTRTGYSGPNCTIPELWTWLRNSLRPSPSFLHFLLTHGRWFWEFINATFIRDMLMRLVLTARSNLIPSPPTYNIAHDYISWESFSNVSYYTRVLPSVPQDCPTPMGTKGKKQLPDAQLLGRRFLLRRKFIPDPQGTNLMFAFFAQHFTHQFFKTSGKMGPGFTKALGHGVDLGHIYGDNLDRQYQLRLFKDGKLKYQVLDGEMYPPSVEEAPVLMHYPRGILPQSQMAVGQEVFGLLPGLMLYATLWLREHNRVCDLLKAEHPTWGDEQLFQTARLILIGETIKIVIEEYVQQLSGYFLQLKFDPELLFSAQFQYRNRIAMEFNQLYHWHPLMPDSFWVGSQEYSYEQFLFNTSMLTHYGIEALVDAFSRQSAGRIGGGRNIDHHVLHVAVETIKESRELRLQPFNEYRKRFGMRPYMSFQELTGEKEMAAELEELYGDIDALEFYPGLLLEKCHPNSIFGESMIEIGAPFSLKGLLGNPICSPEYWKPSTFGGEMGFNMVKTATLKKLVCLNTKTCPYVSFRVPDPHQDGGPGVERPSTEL

ovarian cancer = conditions: women who reported taking acetaminophen daily; prospective study; cited from earlier work
human COX-3a = molecular target: T2, human COX-3a (Homo sapiens, UniProt P23219); assay: COX activity assay: PGF2α formation from arachidonic acid by microsomes of Sf9 cells expressing hCOX-3a; type: biochemical; conditions: synthesis of PGF2α from arachidonic acid; 20 μg microsomal membrane protein, room temperature, 5 minutes, pH 8.0
T2 construct: the full length human COX-3a cDNA was subcloned into pFastBac; made in house; host or cells: Sf9 insect cells (baculovirus, pFastBac); microsomal fraction
Procedure: Microsomal protein fractions were prepared from Sf9 cells infected with the hCOX-3a recombinant baculovirus. Microsomal membrane protein (20 μg) was incubated with the indicated concentration of arachidonic acid in a volume of 150 μl buffer containing 0.1 M Tris-HCl (pH=8.0), 5 mM EDTA, 2 mM phenol and 1.5 μM […]. After incubating at room temperature for 5 minutes, the reaction was terminated by the addition of 40 μl of 1 N HCl with mixing. Samples were neutralized with 40 μl of 1 N NaOH. The formation of the PGF2α product was determined using a PGF2α immunoassay kit (Assay Designs, Inc.), as directed by the manufacturer.

[1] = substrate concentration of 5 mM

T2 sequence (P23219 1-630 isoform P23219-6): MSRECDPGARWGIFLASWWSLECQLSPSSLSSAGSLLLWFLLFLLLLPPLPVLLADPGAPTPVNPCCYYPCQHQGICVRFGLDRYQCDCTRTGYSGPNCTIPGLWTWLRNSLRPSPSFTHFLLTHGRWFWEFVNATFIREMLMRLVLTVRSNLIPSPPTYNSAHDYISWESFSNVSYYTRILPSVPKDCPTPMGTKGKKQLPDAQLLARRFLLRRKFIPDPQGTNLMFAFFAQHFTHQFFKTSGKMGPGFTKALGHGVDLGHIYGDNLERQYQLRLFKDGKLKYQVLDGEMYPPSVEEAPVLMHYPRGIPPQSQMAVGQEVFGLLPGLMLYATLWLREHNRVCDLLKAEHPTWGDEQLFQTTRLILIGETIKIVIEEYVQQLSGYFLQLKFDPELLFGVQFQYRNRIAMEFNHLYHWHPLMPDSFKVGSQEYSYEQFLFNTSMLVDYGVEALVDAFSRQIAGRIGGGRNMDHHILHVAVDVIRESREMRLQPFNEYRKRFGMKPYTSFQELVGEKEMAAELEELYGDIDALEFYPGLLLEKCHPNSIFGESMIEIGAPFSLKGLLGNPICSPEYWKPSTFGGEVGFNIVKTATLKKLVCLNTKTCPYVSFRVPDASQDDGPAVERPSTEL

CC(=O)Nc1ccc(O)cc1 [acetaminophen]
inhibition of dog COX-3 compared with murine COX-1 and -2 (dog COX-3): selectively inhibited | selectivity for inhibition of dog COX-3 versus murine COX-1 (dog COX-3; [1]): 2 fold | selectivity for inhibition of dog COX-3 versus murine COX-2 (dog COX-3; [1]): 100 fold | lower death rate from ovarian cancer than women reporting no use (ovarian cancer): 45%

Cc1c(N(C)CS(=O)(=O)[O-])c(=O)n(-c2ccccc2)n1C.[Na+] [dipyrone]
inhibition of dog COX-3 compared with murine COX-1 and -2 (dog COX-3): selectively inhibited

CCOc1ccc(NC(C)=O)cc1 [phenacetin]
inhibition of dog COX-3 compared with murine COX-1 and -2 (dog COX-3): selectively inhibited

CCCCC/C=C\C/C=C\C/C=C\C/C=C\CCCC(=O)O [arachidonic acid]
Km (human COX-3a): 0.54 µM | Vmax (human COX-3a): 3.07 pmol/mg/min

Cc1cc(=O)n(-c2ccccc2)n1C [antipyrine]
inhibition of dog COX-3 compared with murine COX-1 and -2 (dog COX-3): selectively inhibited
